From EP0533350B1, “DNA encoding precursor interleukin 1B converting enzyme” (Merck & Co., Inc., priority 1991, dated 1993)
Read-outs that look alike come from different tables or passages of the source. Values belong to the compound of their own block, whether it stands above or below them. Where a SMILES comes first, the peptide text is derived from it. [ ]: non-standard residue; d: D form. The star is where a group is joined. Sta = CC(C)C[C@H](N)[C@@H](O)CC(=O)O; Isovaleryl = CC(C)CC(=O)*

How the values were obtained:
ICE [1] = molecular target: T1, ICE (Homo sapiens, UniProt P29466); experiment: Inhibition of ICE by mechanism based thiol protease inhibitors (diazomethyl ketone, peptide aldehydes); assay type: biochemical; parameters: endogenous in cells; host or cells: THP.1 cells (or human peripheral blood monocytes); cytosolic extract, ammonium sulfate, DEAE, sulfopropyl cation exchange; details: relative to Ac-Tyr-Val-Ala-Asp-CHO
T1 sequence (P29466 120-297): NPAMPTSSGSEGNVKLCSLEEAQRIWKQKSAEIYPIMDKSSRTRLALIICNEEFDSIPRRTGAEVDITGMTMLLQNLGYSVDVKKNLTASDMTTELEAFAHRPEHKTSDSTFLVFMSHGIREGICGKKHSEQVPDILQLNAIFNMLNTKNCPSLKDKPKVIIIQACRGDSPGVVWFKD
T1 sequence (P29466 317-404): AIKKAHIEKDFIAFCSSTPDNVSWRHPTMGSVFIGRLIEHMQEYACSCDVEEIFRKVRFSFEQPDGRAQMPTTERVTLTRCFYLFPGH
Excerpt: Characterization of ICE in terms of protease class was ultimately accomplished by the synthesis of two types of mechanism based thiol protease inhibitors, a diazomethyl ketone and a peptide aldehyde, both constructed from the Ac-Tyr-Val-Ala-Asp peptide. The peptidyl diazomethyl ketone (Ac-Tyr-Val-Ala-Asp-CHN2) and the peptide aldehyde (Ac-Tyr-Val-Ala-Asp-CHO) were both synthesized as described in an accompanying patent. […] However, the specificity of action on ICE has been determined by synthesis of a chemically similar peptide aldehyde, Ac-Tyr(dAla)-Val-Ala-Asp-CHO and tested for its ability to inhibit ICE in a competitive and reversible manner.

ICE [2] = molecular target: T1, ICE; experiment: Protease inhibitor sensitivity of ICE: inhibitor added to THP.1 S-300, gel-based pre-IL-1β cleavage assay
recombinant ICE = molecular target: T2, recombinant ICE (Homo sapiens, UniProt P29466); experiment: IL-1β precursor cleavage by lysates of COS-7 cells transfected with full-length ICE cDNA; assay type: biochemical; details: lysates of COS-7 cells transfected with ICE cDNA
T2 construct: transfection of full-length ICE cDNA, including the complete ORF of the 45 kDa ICE preprotein; expressed in transfected cells; host or cells: COS-7 cells, vector pSZ-9016 co-transfected with pX8TAT; detergent lysate
T2 sequence (P29466 120-297 limits assumed): T1 sequence (P29466 120-297)
T2 sequence (P29466 317-404 limits assumed): T1 sequence (P29466 317-404)
Protocol: The expression of recombinant ICE was achieved by transfection of full-length ICE cDNA, including the complete ORF of the 45 kDa ICE preprotein (Fig. 23), into a mammalian host cell. The 1.6 kb EcoRI fragment containing the full length ICE cDNA was cloned into vector pSZ-9016. 6µg of this DNA along with 0.6 ug of pX8TAT, a mammalian expression vector which places the trans-activating protein (TAT) of HIV under the control of the SV40 early promoter, was transfected into COS-7 cells by the cationic-liposome method. Cells were harvested 48 hours later and lysed in detergent buffer (25 mM HEPES pH 7, 1% Triton-X-100, 1mM EDTA, 2mM DTT, 10 ug/ml aprotinin, 10 ug/ml leupeptin, 10 ug/ml pepstatin, and 2 mM PMSF). Cell lysates were incubated with radiolabeled IL-1β precursor to measure ICE activity. Cleavage products of IL-1β were analyzed by immunoprecipitation with IL-1B antibody and fractionation on SDS polyacrylamide gels. The IL-1β precursor was cleaved to the mature, 17 kDa form by cells transfected with ICE cDNA, but not by cells transfected with the expression plasmid alone. […] The substrate specificity of the expressed ICE activity was verified by incubating lysates with an IL-1β precursor cleavage site mutant (Ala^116) which cannot be cleaved by ICE. […]

ICE [3] = molecular target: T1, ICE; experiment: Mixed disulfide treatment of ICE, continuous fluorometric assay, DTT reversal and dilution stability; assay type: biochemical; parameters: endogenous in cells; host or cells: THP.1 cells, S-300 (300,000 x g) cytosolic supernatant
ICE [4] = molecular target: T1, ICE; experiment: Size exclusion chromatography (TSK G2000) of GSSG or cystamine treated ICE; parameters: endogenous in cells; host or cells: THP.1 cells, S-300 (300,000 x g) cytosolic supernatant; details: concentrated ICE pretreated 24 hrs, TSK G2000 column
ICE [5] = molecular target: T1, ICE
ICE [6] = molecular target: T1, ICE; experiment: Discontinuous kinetic assay of ICE with P14mer as substrate; assay type: biochemical; parameters: endogenous in cells; host or cells: THP.1 cells, S-300 (300,000 x g) cytosolic supernatant
Protocol: Proteolytic cleavage of peptide substrates from Example 12 was carried out in the following manner. Samples of peptides were prepared in dimethyl sulfoxide at a concentration of 10 mM. The enzyme used in these studies was purified through sulfopropyl cation exhange chromatography. Reaction mixtures contained approximately 0.2 mg/ml enzyme, 0.2 mM peptide, 10% sucrose, 0.1% CHAPS (3-[(3-cholamidopropyl)dimethyl-ammonio]-1-propansulfon at), 10 mM HEPES (N-2-hydroxyethylpiperazine-N'-2-ethanesulfonic Acid), pH 7.5 in a 50 ul reaction volume. After incubation at 25 degrees for variable lengths of time, reactions were quenched with the addition of 450 ul 0.1% trifluoroacetic acid. The samples were analyzed by reverse-phase high performance liquid chromatography using a Vydac C-18 column (4.6 mm x 25 cm, 5 um particle size, 300 pore size) equilibrated with 5% acetonitrile, 0.1% trifluoroacetic acid at a flow rate of 1 ml/min. Peptides were eluted using a 10 min linear gradient of 5 to 30% acetonitrile and quantitated by monitoring the column effluent at 280 nm. Under these conditions substrate and tyrosine-containing product were separated with baseline resolution in every case. The identity of cleavage products was confirmed using peptide standards.
The data in Table 3 was generated using partially purified enzyme or THP-1 […] and the gel-based cleavage assay as an indicator of ICE activity. This has been verified and extended using the P14mer assay as well as Ac-Tyr-Val-Ala-Asp-AMC as substrates. The only exception to the results of this table came when 1,10 phenanthroline (OP) was tested as an inhibitor. […] The rate constant (8 x 10-2 s-1 M-1) for inactivation is slow and it is not possible to reconstitute ICE activity by addition of ZnC12 following treatment with the chelator. […] The data is not consistent with the hypothesis that ICE is a metalloprotease.

Compound: Cc1ccc(S(=O)(=O)N[C@@H](Cc2ccccc2)C(=O)CCl)cc1 [TPCK]
Inhibition (ICE [2]): +

Compound: CCN1C(=O)C=CC1=O [N-ethyl maleimide]
Inhibition (ICE [2]): +

Compound: PMSF
Inhibition (ICE [2]): -

Compound: NC(=O)CI [Iodoacetamide]
Inhibition (ICE [2]): +

Compound: Cc1ccc(S(=O)(=O)N[C@@H](CCCCN)C(=O)CCl)cc1 [TLCK]
Inhibition (ICE [2]): +

Compound: CC(=O)N[C@@H](CC(C)C)C(=O)N[C@@H](CC(C)C)C(=O)N[C@H](C=O)CCCNC(=N)N [Leupeptin]
Inhibition (ICE [2]): -

Compound: O=C(O)CI [Iodoacetic acid]
rate constant for inactivation of ICE (ICE [5]): 24 M⁻¹ s⁻¹
half-time of inhibition (ICE [5]; 100 mM iodoacetate, substrate at 1 * Km): 9.13 min
ICE inactivated (ICE [5]; 100 mM radiolabeled iodoacetate, 2.8 mM Ac-Tyr-Val-Ala-Asp-AMC (200 x Km) included): < 2%
Inhibition (ICE [2]): +

Compound: c1cnc2c(c1)ccc1cccnc12 [1,10-phenanthroline]
inhibition of ICE activity (ICE [6]; P14mer as substrate): can inhibit ICE activity in a time and concentration dependant manner
increase in the rate at which ICE is inhibited (ICE [6]; addition of 10 mM CuSO4 to assay containing 1.0 mM OP): 17 fold
inhibition of ICE on co-treatment with two metal chelators (ICE [6]; co-treatment with EDTA and OP): did not result in an inhibition of ICE
inhibition of ICE activity in the gel based cleavage assay (ICE [2]): did not inhibit
Inhibition (ICE [2]; Conc. 10 mM): -

Second part, the compound after the results:

less potent at inhibiting ICE activity (ICE [1]): 300 fold
Compound: Ac-Tyr(dAla)-Val-Ala-Asp-CHO

Inhibition (ICE [2]; Conc. 1 mM): +
Compound: O=C1C=CC(=O)N1c1ccccc1 [N-phenyl maleimide]

Inhibition (ICE [2]; Conc. 100 µM): -
Compound: CC(C)CC(=O)N[C@H](C(=O)N[C@H](C(=O)N[C@@H](CC(C)C)[C@@H](O)CC(=O)N[C@@H](C)C(=O)N[C@@H](CC(C)C)[C@@H](O)CC(=O)O)C(C)C)C(C)C [Chloromethyl ketonePepstatin, Pepstatin] (Isovaleryl-VV[Sta]A[Sta]-OH)

Inhibition (ICE [2]; Conc. 50 mM): -
Compound: O=C(O)CN(CCN(CC(=O)O)CC(=O)O)CC(=O)O [EDTA]

inhibition of IL-1β precursor cleavage to the mature 17 kDa form (recombinant ICE): completely inhibited
Compound: CC(=O)N[C@@H](Cc1ccc(O)cc1)C(=O)N[C@H](C(=O)N[C@@H](C)C(=O)N[C@H](C=O)CC(=O)O)C(C)C [L-709,049]

half-time of time dependant decrease in activity (ICE [3]; 5 mM cystamine): 19 min
enzyme activity recovered (ICE [3]; addition of DTT after the inactivation plateau, 5 mM cystamine): 23%
recovery of activity (ICE [3]; concentrated ICE (3 units/ml), 5 mM cystamine, 3 day equilibration at 4 °C, then DTT): Complete recovery of activity
stabilization of ICE activity (ICE [3]; upon dilution of treated enzyme): did not appear to stabilize ICE activity
apparent Mr of treated enzyme (ICE [4]): 22,000
Inhibition (ICE [2]; Conc. 1 mM): +
Compound: NCCSSCCN [Cystamine]

Inhibition (ICE [2]; Conc. 10 mM): -
Compound: O=C(O)CN(CCOCCOCCN(CC(=O)O)CC(=O)O)CC(=O)O [EGTA]

Inhibition (ICE [2]; Conc. 1 mM): -
Compound: CC(C)CC(NC(=O)C1OC1C(=O)O)C(=O)NCCCCNC(=N)N (stereo not shown) [Compound E-64]
